From US8329645B2, “Polymyxin derivatives and uses thereof” (priority 2008, dated 2012)
Where two headings read alike, the source gives them in different places.

Columns and labels:
[1] = rat, Li et al. (2003), identical dosing and administration procedure, cited from earlier work
[2] = test system: P. aeruginosa ATCC 27853; experiment: E-test MIC of antibiotics on Mueller Hinton agar containing increasing concentrations of NAB739; assay type: cell-based, Pseudomonas aeruginosa
[3] = test system: Ac. baumannii ATCC19606; experiment: E-test MIC with or without NAB7061 (4 μg/ml), Mueller-Hinton agar; assay type: cell-based, Acinetobacter baumannii
Description: (§1) MICs were determined by using E-strips (Biodisk Ltd., Solna, Sweden) according to the manufacturer's instructions.
(§2) The strains originated from ATCC (11 strains), CCUG (11 strains), and NCTC (The National Collection of Type Cultures, Colindale, U.K.; 2 strains). Eight strains (the F-strains) were purchased from Mobidiag Ltd., Helsinki, Finland.

[4] = test system: Ac. baumannii F264; experiment: as above; assay type: cell-based, Acinetobacter baumannii
Description: as §1, §2

[5] = test system: Ac. baumannii F263; experiment: as above; assay type: cell-based, Acinetobacter baumannii
Description: as §1, §2

[6] = test system: A. baumannii F264; experiment: E-test MIC of antibiotics on Mueller Hinton agar containing increasing concentrations of NAB739; assay type: cell-based, Acinetobacter baumannii
[7] = test system: A. baumannii ATCC19606; experiment: as above; assay type: cell-based, Acinetobacter baumannii
[8] = test system: E. coli IH3080; experiment: E-test MIC with or without NAB7061 (4 μg/ml), Mueller-Hinton agar; assay type: cell-based, Escherichia coli
Description: as §1, §2

[9] = test system: E. coli ATCC25922; details: E. coli ATCC25922
Description: as §1, §2

[10] = test system: K. pneumoniae ATCC13883; details: K. pneumoniae ATCC13883
Description: as §1, §2

[11] = test system: E. cloacae ATCC23355; experiment: E-test MIC with or without NAB7061 (4 μg/ml), Mueller-Hinton agar; assay type: cell-based, Enterobacter cloacae
Description: as §1, §2

[12] = biological target: brush-border membrane (BBM) from the renal cortex; experiment: Inhibition of binding of radiolabelled gentamycin to brush-border membrane vesicles; details: rat renal cortex BBM vesicles; 20 μM [3H] gentamycin; 60 min at 4° C.
Source text: The binding of the compounds according to this invention to isolated brush-border membrane (BBM) from the renal cortex can be measured indirectly by measuring their ability to inhibit the binding of radiolabelled gentamycin to BBM. Accordingly, the compounds according to this invention that have less affinity to BBM than for example polymyxin B inhibit the binding of radiolabelled gentamycin to a lesser degree than does polymyxin B.
BBM was isolated from the renal cortex of male albino rats by using the Mg^2+/EGTA precipitation technique as described by Nagai et al. (2006). The binding of gentamycin was measured, according to the method described by Nagai et al. (2006) by incubating BBM vesicles (20 μl) in 10 mM HEPES (pH 7.5) with 300 mM mannitol in the presence of 20 μM [^3H] gentamycin (American Radiolabeled Chemicals, Inc. (St. Louis, Mo., U.S.A.) with or without the compound to be tested or a positive control. After an incubation of 60 min at 4° C., 1 ml of ice-cold buffer described above was added, and the mixture was filtered through a Millipore filter (0.45 μm; HAWP). The filter was washed with the buffer and the radioactivity remaining in the filter was measured by using a liquid scintillation counter. The IC50 values were determined as in Nagai et al. (2006) using the Hill equation.

Colistin (polymyxin E)
clearance [1]: 5.2 ± 0.4 mL/min/kg | half-life [1]: 74.6 ± 13.2 min | renal clearance [1]: 14.4 ± 12 mL/day/kg | urinary recovery [1]: 0.18±0.14 % of dose in 24 h | volume of distribution [1]: 496 ± 60 mL/kg | urinary recovery ([1]; listed as polymyxin E (colistin)): about 0.18±0.14 % of dose in 24 h

C[C@@H](O)[C@H]1C(=O)N2C(C(=O)O)=C(S[C@@H]3CN[C@H](C(=O)N(C)C)C3)[C@H](C)[C@H]12 [meropenem]
MIC of antibiotic in the presence of NAB739 ([2]; NAB 739 0 μg/ml): 0.25 µg/mL | MIC of antibiotic in the presence of NAB739 ([2]; NAB 739 0.5 μg/ml): 0.25 µg/mL | MIC of antibiotic in the presence of NAB739 ([2]; NAB 739 1 μg/ml): 0.25 µg/mL | MIC of antibiotic in the presence of NAB739 ([2]; NAB 739 2 μg/ml): 0.25 µg/mL | MIC of antibiotic in the presence of NAB739 ([2]; NAB 739 […]): 0.25 µg/mL | MIC of carbapenem at NAB 7061 concn 0 μg/ml ([3]; A. baumannii ATCC19606, absence of NAB 7061): 1.5 µg/mL | MIC of antibiotic in the presence of 4 μg/ml of NAB 7061 ([3]; Ac. baumannii ATCC19606): 0.75 µg/mL | MIC of carbapenem at NAB 7061 concn 0 μg/ml ([4]; A. baumannii F264, absence of NAB 7061): 32 µg/mL | MIC of antibiotic in the presence of 4 μg/ml of NAB 7061 ([4]; Ac. baumannii F264): 4 µg/mL | MIC of carbapenem at NAB 7061 concn 0 μg/ml ([5]; A. baumannii F263, absence of NAB 7061): >32 µg/mL | MIC of antibiotic in the presence of 4 μg/ml of NAB 7061 ([5]; Ac. baumannii F263): 6 µg/mL | MIC of antibiotic in the presence of NAB739 ([6]; NAB 739 0 μg/ml): >32 µg/mL | MIC of antibiotic in the presence of NAB739 ([6]; NAB 739 0.5 μg/ml): 1 µg/mL | MIC of antibiotic in the presence of NAB739 ([6]; NAB 739 1 μg/ml): 0.38 µg/mL | MIC of antibiotic in the presence of NAB739 ([7]; NAB 739 0 μg/ml): 1 µg/mL | MIC of antibiotic in the presence of NAB739 ([7]; NAB 739 0.5 μg/ml): 0.25 µg/mL | MIC of antibiotic in the presence of NAB739 ([7]; NAB 739 1 μg/ml): 0.125 µg/mL

quinupristin-dalfopristin [Quinupristin-dalfopr.]
Sensitization factor to antibiotic (MIC without / with 4 μg/ml of NAB 7061) [8]: >21 | Sensitization factor to antibiotic (MIC without / with 4 μg/ml of NAB 7061) [9]: >21 | Sensitization factor to antibiotic (MIC without / with 4 μg/ml of NAB 7061) [10]: 1 | Sensitization factor to antibiotic (MIC without / with 4 μg/ml of NAB 7061) [11]: >5

gentamycin [reference compound]
IC50 [12]: 90.2 ± 9.7 µM

CC(=O)NC[C@H]1CN(c2ccc(N3CCOCC3)c(F)c2)C(=O)O1 [Linezolid]
Sensitization factor to antibiotic (MIC without / with 4 μg/ml of NAB 7061) [8]: >8 | Sensitization factor to antibiotic (MIC without / with 4 μg/ml of NAB 7061) [9]: >11 | Sensitization factor to antibiotic (MIC without / with 4 μg/ml of NAB 7061) [10]: >4 | Sensitization factor to antibiotic (MIC without / with 4 μg/ml of NAB 7061) [11]: >8
